The values that follow come from patent publication US10793522B2, “Sulfonamides as inhibitors of the uptake of extracellular citrate” (Boehringer Ingelheim International GmbH, priority 2016, dated 2020).

Assay [1] has as its target T1, hSLC13A5 (Homo sapiens, UniProt Q86YT5). The assay can be described thus: HepG2/14C-citrate uptake assay. Type of assay: cell-based. The note with it: HepG2 cells endogenously expressing hSLC13A5; Cytostar-T; 14C-citrate ~1.8 μM; incubation over night. Details: HepG2 cells endogenously express hSLC13A5 transporter which is responsible for the uptake of citrate into these cells; endogenous in cells; host or cells: HepG2. The text has this: (4) HepG2/^14C-Citrate Uptake Assay
HepG2 cells endogenously expressing hSLC13A5 were obtained from the Wistar Institute (Knowles et al., Science 1980, 209, 497-499).
HepG2 cells endogenously express hSLC13A5 transporter which is responsible for the uptake of citrate into these cells. […] The uptake of ^14C-citrate into HepG2 cells is monitored using the Cytostar-T assay. This assay format is based on the imported radioactive citrate brought into proximity with the scintillant contained within the base of the plate by virtue of the biological processes within the cells. The radioactive decay is converted to a light signal based on the integration of the scintillation matrix into the assay plate.
(§1) Method: ^14C-Citrate Uptake Assay
Starting from 10 mM stock solutions in 100% DMSO, compounds are diluted in pure DMSO using the appropriate dilution steps. Prior to the uptake assay, 400 μL assay medium+4.8 μL compound solution (or pure DMSO for non-inhibited control wells) are mixed (final DMSO concentration in the assay: 1% (v/v)) ^14C-citrate working solution (volumes required per 96-well):
The HepG2 cells are cultivated in cell culture medium (EMEM+10% fetal calf serum+1×NEAA and 10 mM L-Glutamin) For the assay, the medium of the confluent cultures is discarded and the cells are washed with DPBS w/o Mg^2+ w/o Ca^2+. The cells are detached by the addition of 1.0 mL 2× Trypsin in DPBS w/o Mg^2+ w/o Ca^2+ with 7.5 mM EDTA per 75 cm^2 culture flask for up to 3 minutes at 37° C. and resuspended in 10 mL cell culture medium. Following cell counting, 100,000 cells/well are seeded in a volume of 200 μL into Cytostar-T Scintillating 96-well microplates. After overnight incubation in a humid cell culture incubator at 37° C., 5% CO2, the cell culture medium is carefully aspirated and the cells are incubated with 200 μL prewarmed (37° C.) assay medium (50% DMEM+50% Ham's F-12+15 mM HEPES (pH 7.4) (medium contains 15.5 m M D(+)-glucose) per well for at least 1 h prior to the experiment.
Immediately prior to uptake assay, the assay medium is carefully removed and 100 μL test compound dilution is added to each well (n=3).
Following a 20 min incubation at 37° C. in the cell culture incubator, 20 μL of ^14C-citrate working solution is added to each well (final volume per well: 120 μL; final ^14C-citrate concentration ˜1.8 μM/well)).
After incubation over night at 37° C. in the cell culture incubator, the plates are sealed on the top using a transparent plastic foil and on the bottom using a white plastic foil. Following the sealing, the plate is placed into the TopCount NXT HTS and the signal is recorded.
(§2) The IC50 values of the compounds are calculated in IDBS XLfit by sigmoidal dose-response (variable slope).

Assay [2] concerns the target T1, hSLC13A5. The assay is described as follows: Recombinant hSLC13A5/14C-citrate uptake assay. In kind it is cell-based. The settings on record: HEK293 Flp-In cells over-expressing hSLC13A5; WGA-PVT SPA beads; 14C-citrate approx. 2 μM; 4 h.
Text: (5) Recombinant hSLC13A5/^14C-Citrate Uptake Assay
The human embryonic kidney 293 (HEK 293)-Flp-In cells (293Flp-In-hSLC13A5) over-expressing hSLC13A5 transporter were cloned: The originating plasmid pcDNA3.1-hSLC13A5 containing hSLC13A5 was synthesized at GeneArt. The cDNA for hSLC13A5 was taken from this plasmid by means of PCR amplification using primers with added HindIII (N-terminal) and XhoI (C-terminal) restriction sites and sub-cloned in frame into pcDNA5/FRT from Invitrogen using the respective restriction enzymes. HEK293 Flp-In cells from Invitrogen were stably co-transfected using the pcDNA/FRT-hSLC13A5 plasmid as well as the pOG44 plasmid.
HEK 293-Flp-In cells are used that stably over-express hSLC13A5 transporter which is responsible for the uptake of citrate into these cells.
The uptake of ^14C-citrate into the 293Flp-In-hSLC13A5 cells is monitored using the WGA-PVT SPA (wheat germ agglutinin-polyvinyltoluene scintillation proximity assay) beads that bind to the 293Flp-In cells due to their WGA-PVT surface. This assay format is based on the imported radioactive citrate brought into proximity with the SPA beads by virtue of the biological processes within the cells. The radioactive decay is converted into a light signal that can be measured using e.g. the TopCount plate reader.
as §1
Test Compound Dilutions (2Fold-Concentrated):
Starting from 10 mM stock solutions in 100% DMSO, compounds are diluted in pure DMSO using the appropriate dilution steps.
Prior to the uptake assay, 200 μL assay medium (lx HBSS (with Ca^2+ and Mg^2+, w/o Phenolred), contains 5.56 mM D(+)-Glucose)+19.44 mM D(+)-Glucose (final concentration of D(+)-Glucose is 25 mM))+4.8 μL compound solution (or pure DMSO for non-inhibited control wells) are mixed (final DMSO concentration in the assay: 1% (v/v)).
After preparing the 2fold-concentrated test compound dilutions, 50 μL are pipetted to each well of white OptiPlates-96 and incubated at 37° C. in an incubator.
^14C-Citrate Working Solution (Volumes Required Per 96-Well):
The 293Flp-In-hSLC13A5 cells are cultivated in cell culture medium (DMEM+10% fetal calf serum+100 μg/mL Hygromycin B). The medium of the confluent cultures is discarded and the cells are washed with DPBS (w/o Mg^2+ w/o Ca^2+). The cells are detached by the addition of 2.0 mL Accumax per 75 cm^2 culture flask for up to 3 minutes at 37° C. and resuspended in 10 mL assay medium. After cell counting, 50,000 cells/well are administered in a volume of 50 μL into the white OptiPlates-96 containing the respective test compound concentrations. Following a 20 min incubation at 37° C. in the cell culture incubator, 20 μL of ^14C-citrate working solution is added to each well (final volume per well: 120 μL; final ^14C-citrate concentration: approx. 2 μM/well).
After incubation for 4 h at 37° C. in a humid cell culture incubator and the addition of 30 μL of WGA-PVT SPA beads to each well (0.25 mg/well), the plates are sealed on the top using a transparent plastic foil. Incubate the plates for 1 h by room temperature and gentle shaking.
After incubation, the plate is placed into the TopCount NXT HTS and the signal is recorded.
The performance of the test compounds is calculated as follows:
Wells containing cells incubated with 1% DMSO only deliver values for the non-inhibited ^14C-citrate uptake into 293Flp-In-hSLC13A5 cells (100% CTL). Wells containing cells which have received 30 mM non-labelled potassium citrate solution in addition to the ^14C-citrate working solution deliver values for the background (0% CTL).
as §2

T1 sequence (Q86YT5 whole entry): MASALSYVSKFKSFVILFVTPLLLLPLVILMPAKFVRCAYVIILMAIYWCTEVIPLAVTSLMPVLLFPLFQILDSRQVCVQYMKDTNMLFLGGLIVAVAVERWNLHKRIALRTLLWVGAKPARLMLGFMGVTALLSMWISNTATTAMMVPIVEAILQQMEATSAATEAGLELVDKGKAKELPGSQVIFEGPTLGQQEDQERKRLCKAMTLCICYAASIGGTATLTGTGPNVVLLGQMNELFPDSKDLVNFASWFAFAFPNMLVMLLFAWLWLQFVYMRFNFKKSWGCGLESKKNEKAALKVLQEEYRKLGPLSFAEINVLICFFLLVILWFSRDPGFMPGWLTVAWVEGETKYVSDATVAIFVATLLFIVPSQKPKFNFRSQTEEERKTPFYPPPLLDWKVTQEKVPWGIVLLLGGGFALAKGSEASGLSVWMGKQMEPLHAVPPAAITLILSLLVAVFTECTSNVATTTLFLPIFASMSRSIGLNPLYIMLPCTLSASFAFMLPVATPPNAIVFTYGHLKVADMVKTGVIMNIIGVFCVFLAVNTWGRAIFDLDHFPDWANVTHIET

The term IC50 denotes the midpoint of a concentration-inhibition curve. With `O=C(NCc1cccnc1)C1CCN(S(=O)(=O)c2cc(Br)cc(Br)c2)CC1` [(I-36)], the IC50 at hSLC13A5 [1] was 448 nM; at hSLC13A5 [2], 354 nM.
As to `CCOc1cc(Cl)cc(S(=O)(=O)N2CCC(C(=O)NCc3ccc(C#N)cc3)CC2)c1` [(I-54)], the IC50 at hSLC13A5 [1] came to 62 nM; at hSLC13A5 [2], 231 nM.
The corresponding values for `CCc1ccc(CNC(=O)C2CCN(S(=O)(=O)c3cc(C)cc(Br)c3)CC2)nc1` [(I-59)] are 27 nM and 98 nM.
The corresponding values for `CCOc1cc(Cl)cc(S(=O)(=O)N2CCC(C(=O)NCc3ccc(F)cn3)CC2)c1` [(I-55)] are 56 nM and 189 nM.
Take `COc1ncccc1CNC(=O)C1CCN(S(=O)(=O)c2cc(Cl)cc(Cl)c2)CC1` [(I-13)]: the concentration for half-maximal inhibition (IC50) stood at 201 nM against hSLC13A5 [1] and 475 nM at hSLC13A5 [2].
The like results for `CCOc1cc(Cl)cc(S(=O)(=O)N2CCC(C(=O)NCc3ccc(C#N)cc3F)CC2)c1` [(I-50)] were, in that order, 73 nM and 127 nM.
On to `CCOc1cc(Cl)cc(S(=O)(=O)N2CCC(C(=O)NCc3ccc(Cl)cn3)CC2)c1` [(I-52)], for which the IC50 at hSLC13A5 [1] turned out to be 51 nM; at hSLC13A5 [2], 200 nM.
The like results for `CCOc1cc(Cl)cc(S(=O)(=O)N2CCC(C(=O)NCc3ccc(F)cc3)CC2)c1` [(I-51)] were, in that order, 14 nM and 66 nM.
As for `O=C(NCc1ccccn1)C1CCN(S(=O)(=O)c2cc(Br)cc(Br)c2)CC1` [(I-37)], the concentration for half-maximal inhibition (IC50) at hSLC13A5 [1] is 253 nM; at hSLC13A5 [2], 89 nM.
The corresponding values for `O=C(NCc1nccs1)C1CCN(S(=O)(=O)c2cc(Cl)cc(Cl)c2)CC1` [(I-9)] are 246 nM and 303 nM.
The corresponding values for `Cc1cc(Br)cc(S(=O)(=O)N2CCC(C(=O)NCc3ccc(F)cn3)CC2)c1` [(I-62)] are 99 nM and 232 nM.
As to `O=C(NCc1ccc(F)cn1)C1CCN(S(=O)(=O)c2cc(Br)cc(Br)c2)CC1` [(I-35)], the half-inhibitory concentration (IC50) against hSLC13A5 [1] amounted to 147 nM; on hSLC13A5 [2] it was 54 nM.
The corresponding values for `COc1ncccc1CNC(=O)C1CCN(S(=O)(=O)c2cc(C)cc(Br)c2)CC1` [(I-58)] are 168 nM and 837 nM.
The corresponding values for `COc1cc(Cl)cc(S(=O)(=O)N2CCC(C(=O)NCc3ccc(F)cn3)CC2)c1` [(I-56)] are 292 nM and 436 nM.
The like results for `CCOc1cc(Cl)cc(S(=O)(=O)N2CCC(C(=O)NCc3ccccn3)CC2)c1` [(I-53)] were, in that order, 110 nM and 410 nM.
